Source: the supplement of paper PMC10627819

Assays:
B. subtilis 168 [1] = experiment: fitness (endpoint OD595 vs no drug) (fraction); higher = more growth
Method in brief: (§1)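 At 37 °C, bacteria in TSB, LB Lennox or CY were grown in 384-well plates from a starting OD595 of 0.01. OD595 was measured every 30 min for 14 h, with the first reading used as background. Fitness is the optical density at the switch to stationary phase as a fraction of the robust mean of no-drug control wells, capped at 1.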

S. pneumoniae D39V [2] = experiment: as above
Method in brief: as §1

S. aureus Newman = experiment: Bliss interaction score (quartile over a dose matrix) (fitness difference); higher = more antagonism (negative = synergy)
Method in brief: (§2)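 OD595 was read at entry into stationary phase and expressed relative to the robust mean of the no-drug wells on the same plate, capped at 1. The resulting ratio is the fitness value. The Bliss score, observed fitness minus product-based expected fitness with single-drug fitness inferred from combinations, is summarised by quartiles over technical, biological and donor/recipient replicates.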

B. subtilis 168 [3] = experiment: as above
Method in brief: as §2

S. pneumoniae D39V [4] = experiment: as above
Method in brief: as §2

S. aureus DSM 20231 = experiment: as above
Method in brief: as §2
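Throughout, for Bliss interaction score (quartile over a dose matrix): first quartile when negative (synergy) and third quartile when positive (antagonism).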

CCCCCCCCCC(=O)N[C@@H](Cc1c[nH]c2ccccc12)C(=O)N[C@H](CC(N)=O)C(=O)N[C@@H](CC(=O)O)C(=O)N[C@@H]1C(=O)NCC(=O)N[C@@H](CCCN)C(=O)N[C@@H](CC(=O)O)C(=O)N[C@H](C)C(=O)N[C@@H](CC(=O)O)C(=O)NCC(=O)N[C@H](CO)C(=O)N[C@@H]([C@H](C)CC(=O)O)C(=O)N[C@@H](CC(=O)c2ccccc2N)C(=O)O[C@@H]1C [Daptomycin] + CCC(C)C1C(=O)NC(=C)C(=O)NC(C(=O)NC(CSCC(C(=O)N1)NC(=O)/C(=C/C)/NC(=O)C(C(C)CC)N)C(=O)NC2C(SCC(NC(=O)CNC(=O)C3CCCN3C2=O)C(=O)NC(CCCCN)C(=O)NC4C(SCC(NC(=O)CNC(=O)C(NC(=O)C(NC(=O)C(NC(=O)CNC4=O)C)CC(C)C)CCSC)C(=O)NC(CC(=O)N)C(=O)NC(CCSC)C(=O)NC(CCCCN)C(=O)NC5C(SCC6C(=O)NC(C(=O)NC(CSC(C(C(=O)N6)NC(=O)C(NC5=O)C)C)C(=O)NC(CO)C(=O)NC(C(C)CC)C(=O)NC(CC7=CN=CN7)C(=O)NC(C(C)C)C(=O)NC(=C)C(=O)NC(CCCCN)C(=O)O)CC8=CN=CN8)C)C)C)CC(C)C [Nisin]
fitness, B. subtilis 168 [1], one replicate, main component drawn
Settings	first compound 0.125 µg/mL	first compound 0.25 µg/mL	first compound 0.5 µg/mL	first compound 1 µg/mL
partner 0.5 µg/mL	0.829	–	–	0.726
partner 1 µg/mL	0.873	–	–	0.676
partner 1.25 µg/mL	0.963	0.933	≥ 1	–
partner 1.6 µg/mL	0.788	0.654	0.797	–
partner 2 µg/mL	0.439	–	–	0.451
partner 2.5 µg/mL	0.234	0.593	0.601	–
partner 3.2 µg/mL	0.0337	0.0148	0.0344	–
partner 4 µg/mL	0.212	0.0372	0.0568	–
partner 5 µg/mL	0.077	0.0364	0.0223	–
partner 6.4 µg/mL	0.0443	0.039	0.026	–
partner 8 µg/mL	0.0734	0.157	0.0959	–
partner 16 µg/mL	0.0313	0.1	0.0497	–

fitness, main component drawn
Settings	partner 0.4275 µg/mL	partner 0.5 µg/mL	partner 0.855 µg/mL	partner 1 µg/mL	partner 1.6 µg/mL	partner 1.71 µg/mL	partner 2 µg/mL	partner 3.2 µg/mL	partner 6.4 µg/mL
B. subtilis 168 [1], first compound 0.25 µg/mL	–	0.863	–	0.788	–	–	0.58	–	–
B. subtilis 168 [1], first compound 0.5 µg/mL	–	0.828	–	0.794	–	–	0.595	–	–
S. pneumoniae D39V [2], first compound 1 µg/mL	0.995	–	0.874	–	0.022	0.0748	–	0.0226	0.0257
S. pneumoniae D39V [2], first compound 2 µg/mL	0.98	–	0.905	–	0.0316	0.077	–	0.0221	0.013
S. pneumoniae D39V [2], first compound 4 µg/mL	0.95	–	0.796	–	0.0215	0.0872	–	0.0303	0.0068

main component drawn
Settings	Bliss interaction score
B. subtilis 168 [3]	0.0676
S. aureus DSM 20231	0.209
S. aureus Newman	0.0445
S. pneumoniae D39V [4]	-0.0492

CCCCCCCCCC(=O)N[C@@H](Cc1c[nH]c2ccccc12)C(=O)N[C@H](CC(N)=O)C(=O)N[C@@H](CC(=O)O)C(=O)N[C@@H]1C(=O)NCC(=O)N[C@@H](CCCN)C(=O)N[C@@H](CC(=O)O)C(=O)N[C@H](C)C(=O)N[C@@H](CC(=O)O)C(=O)NCC(=O)N[C@H](CO)C(=O)N[C@@H]([C@H](C)CC(=O)O)C(=O)N[C@@H](CC(=O)c2ccccc2N)C(=O)O[C@@H]1C [Daptomycin] + CN(C)C(=O)C(CCN1CCC(O)(c2ccc(Cl)cc2)CC1)(c1ccccc1)c1ccccc1 [Loperamide]
fitness
Settings	partner 17.14 µg/mL	partner 20 µg/mL	partner 25 µg/mL	partner 34.28 µg/mL	partner 40 µg/mL	partner 80 µg/mL	partner 100 µg/mL
B. subtilis 168 [1], first compound 0.125 µg/mL	–	–	0.862	–	–	–	0.0281
B. subtilis 168 [1], first compound 0.25 µg/mL	–	–	0.802	–	–	–	0.0213
B. subtilis 168 [1], first compound 0.5 µg/mL	–	–	0.669	–	–	–	0.0107
S. pneumoniae D39V [2], first compound 1 µg/mL	0.888	≥ 1	–	0.877	≥ 1	0.225	–
S. pneumoniae D39V [2], first compound 2 µg/mL	0.951	≥ 1	–	0.919	≥ 1	0.153	–
S. pneumoniae D39V [2], first compound 4 µg/mL	0.917	≥ 1	–	0.918	≥ 1	0.196	–

fitness, one replicate
Settings	first compound 1 µg/mL	first compound 2 µg/mL	first compound 4 µg/mL
B. subtilis 168 [1], partner 25 µg/mL	0.191	–	–
B. subtilis 168 [1], partner 50 µg/mL	0.0409	–	–
B. subtilis 168 [1], partner 100 µg/mL	0.0167	–	–
S. pneumoniae D39V [2], partner 68.57 µg/mL	0.856	0.858	0.887

Settings	Bliss interaction score
B. subtilis 168 [3]	0.136
S. aureus DSM 20231	0.133
S. aureus Newman	0.0375
S. pneumoniae D39V [4]	0.075
